{"source": "patent US20090022757A1", "about": "“Method for treating photoreceptor cell degeneration” (priority 2007, published 2009)", "key": {"[1]": {"test_system": "MNU-induced retinal photoreceptor cell degeneration", "assay": "Electroretinogram of rats with MNU-induced retinal photoreceptor cell degeneration treated with GLS oil and/or DHA", "assay_type": "in vivo, Sprague Dawley rats", "parameters": "a-Wave Amplitude / b-Wave Amplitude: unit not given here", "conditions": "MNU 40 mg/kg i.p.", "description": "Animals and grouping: One hundred and five 50-day-old Sprague Dawley rats were used in the experiment. Twenty-five rats were selected randomly as the normal control (receiving an excipient via gastric gavage). Eighty rats were used for establishing the photoreceptor cell degeneration model and were treated by intraperitoneal injection with a single dose of MNU at 40 mg/kg. The MNU-injected rats were randomly divided into four experimental groups:\n(1) GLS oil treatment group (receiving GSL oil and an excipient via gastric gavage);\n(2) GLS oil+DHA treatment group (receiving GSL oil, DHA, and an excipient via gastric gavage);\n(3) DHA control group (receiving DHA and an excipient via gastric gavage;\n(4) Model control group (receiving an excipient via gastric gavage).\nThe excipient used in this experiment is hydroxypropyl methyl cellulose. The treatment started three days before the administration of MNU (day-3). Each animal in Groups 1-3 received a daily gastric feeding of GSL oil only, GSL oil and DHA (2 mg/kg), or DHA (2 mg/kg) only, in 1 ml 0.5% hydroxypropyl methyl cellulose. Animals in Group 4 received 1 ml 0.5% hydroxypropyl methyl cellulose.\nElectroretinogram examination: The pupils of rats were dilated as described in Example 1. The electroretinogram examinations were conducted under the following conditions:\nA Neuropack II electrophysiological analyzer was employed to measure the visual electrophysiology."}, "[2]": {"test_system": "MNU-induced retinal photoreceptor cell degeneration", "assay": "Pathological examination of MNU-induced retinal photoreceptor cell damage in rats treated with GLS oil and/or DHA", "conditions": "MNU 40 mg/kg i.p., damage score"}, "[3]": {"conditions": "daily gastric gavage from day -3, day 1"}, "[4]": {"conditions": "daily gastric gavage from day -3, day 3"}, "[5]": {"conditions": "daily gastric gavage from day -3, day 5"}, "[6]": {"conditions": "daily gastric gavage from day -3, day 7"}, "[7]": {"conditions": "daily gastric gavage from day -3, day 10"}}, "data": [{"smiles": "CC/C=C\\C/C=C\\C/C=C\\C/C=C\\C/C=C\\C/C=C\\CCC(=O)O", "note": "[DHA, Docosahexaenoic acid]", "values": [{"measurement": "a-Wave Amplitude", "setting": "[1]; [3]", "result": "18.43 ± 17.94"}, {"measurement": "a-Wave Latent Period", "setting": "[1]; [3]", "result": "10.35 ± 9.02"}, {"measurement": "b-Wave Amplitude", "setting": "[1]; [3]", "result": "56.90 ± 61.16"}, {"measurement": "b-Wave Latent Period", "setting": "[1]; [3]", "result": "43.92 ± 38.08"}, {"measurement": "a-Wave Amplitude", "setting": "[1]; [4]", "result": "14.13 ± 15.71"}, {"measurement": "a-Wave Latent Period", "setting": "[1]; [4]", "result": "8.64 ± 9.91"}, {"measurement": "b-Wave Amplitude", "setting": "[1]; [4]", "result": "59.43 ± 65.22"}, {"measurement": "b-Wave Latent Period", "setting": "[1]; [4]", "result": "35.10 ± 37.34"}, {"measurement": "a-Wave Amplitude", "setting": "[1]; [5]", "result": "10.27 ± 11.15"}, {"measurement": "a-Wave Latent Period", "setting": "[1]; [5]", "result": "8.30 ± 8.81"}, {"measurement": "b-Wave Amplitude", "setting": "[1]; [5]", "result": "47.85 ± 52.05"}, {"measurement": "b-Wave Latent Period", "setting": "[1]; [5]", "result": "34.92 ± 36.97"}, {"measurement": "a-Wave Amplitude", "setting": "[1]; [6]", "result": "16.61 ± 18.95"}, {"measurement": "a-Wave Latent Period", "setting": "[1]; [6]", "result": "9.01 ± 9.56"}, {"measurement": "b-Wave Amplitude", "setting": "[1]; [6]", "result": "53.93 ± 58.06"}, {"measurement": "b-Wave Latent Period", "setting": "[1]; [6]", "result": "36.24 ± 38.45"}, {"measurement": "a-Wave Amplitude", "setting": "[1]; [7]", "result": "19.70 ± 17.97"}, {"measurement": "a-Wave Latent Period", "setting": "[1]; [7]", "result": "10.42 ± 9.10"}, {"measurement": "b-Wave Amplitude", "setting": "[1]; [7]", "result": "64.71 ± 57.60"}, {"measurement": "b-Wave Latent Period", "setting": "[1]; [7]", "result": "43.23 ± 37.88"}, {"measurement": "Number of Eyes with extinguished electroretinogram", "setting": "[1]; n = 10, day 3", "result": 5}, {"measurement": "Number of Eyes with extinguished electroretinogram", "setting": "[1]; n = 10, day 5", "result": 5}, {"measurement": "Number of Eyes with extinguished electroretinogram", "setting": "[1]; n = 10, day 7", "result": 5}, {"measurement": "Number of Eyes with extinguished electroretinogram", "setting": "[1]; n = 10, day 10", "result": 4}, {"measurement": "Number of Eyes with extinguished electroretinogram", "setting": "[1]; n = 10, day 11", "result": 4}, {"measurement": "The Damage Degree of the Retinal Photoreceptor Cell Pathology", "setting": "[2]; day 1", "result": "1.40 ± 0.52"}, {"measurement": "The Damage Degree of the Retinal Photoreceptor Cell Pathology", "setting": "[2]; day 3", "result": "2.2 ± 1.32"}, {"measurement": "The Damage Degree of the Retinal Photoreceptor Cell Pathology", "setting": "[2]; day 5", "result": "2.9 ± 2.85"}, {"measurement": "The Damage Degree of the Retinal Photoreceptor Cell Pathology", "setting": "[2]; day 7", "result": "2.80 ± 2.97"}, {"measurement": "The Damage Degree of the Retinal Photoreceptor Cell Pathology", "setting": "[2]; day 10", "result": "2.60 ± 2.95"}]}]}
